Assay results from patent US20240400554A1, “MONOACYLGLYCEROL LIPASE (MAGL) INHIBITORS FOR THE TREATMENT OF PAIN AND RELATED MEDICAL DISORDERS” (Humanwell Pharmaceutical US, Inc., priority 2023, published 2024).

Assays:
[1] = test system: 2% formalin model in SD rats; assay: Formalin-induced pain model; assay type: in vivo; conditions: 3 mg/kg p.o.; for inhibition in vivo at 3 mg/kg: Rattus norvegicus, po, 1 h, movements (lifts and licks) 0-60 min after formalin, read-out: MPE % (Maximum Possible Effect)
Experimental: A diluted formalin solution is injected subcutaneously into the hind paw of rats using a microsyringe, creating a continuous noxious stimulus that induces spontaneous pain behaviors in the animals. The experiment can record the number of lifts and licks of the rat's foot through an autonomous movement analyzer to assess the degree of pain. This experiment uses a 2% formalin model in SD rats and tests the analgesic activity of compounds by oral administration. After injecting 2% formalin, the number of movements (lifts and licks of the injected foot) from 0-60 min after injecting the formalin solution is recorded and analyzed.
The Maximum Possible Effect (MPE %) is calculated as a percentage:
Note: (1) MPE % for each group is calculated with sham group MPE=100% and vehicle group MPE=0% as standards. (2) Movement counts of the sham group are subtracted to exclude the impact of background noise on the experiment. (2) “Sham” represents the average value of the sham group; “Vehicle-Sham” represents the average value of the vehicle group minus the sham group.
Results are presented as mean values with standard error. Data from each group are analyzed and graphed using GraphPad Prism 8 software. Statistical analysis is conducted using one-way ANOVA to determine statistical differences between groups, with t-tests used for comparisons between two groups. A p-value <0.05 is considered statistically significant.

[2] = biological target: T1, human recombinant MAGL (monoacylglycerol lipase) (Homo sapiens, UniProt Q99685); assay: In vitro MAGL enzyme inhibition assay (Cayman Monoacylglycerol Lipase Inhibitor Screening Assay, 4-nitrophenylacetate hydrolysis); assay type: biochemical; conditions: 4-nitrophenylacetate substrate, 15 min preincubation, absorbance 405-415 nm
T1 construct: purchased Cayman Chemical Item No. 705192
T1 sequence (Q99685 1-303): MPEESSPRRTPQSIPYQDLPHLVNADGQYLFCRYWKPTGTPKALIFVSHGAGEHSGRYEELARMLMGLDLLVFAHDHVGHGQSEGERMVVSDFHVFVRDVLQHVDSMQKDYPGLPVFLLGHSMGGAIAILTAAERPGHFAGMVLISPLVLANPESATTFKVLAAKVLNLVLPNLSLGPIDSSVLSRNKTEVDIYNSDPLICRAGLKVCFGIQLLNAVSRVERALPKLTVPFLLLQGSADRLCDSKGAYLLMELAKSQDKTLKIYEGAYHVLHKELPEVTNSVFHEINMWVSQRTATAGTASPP
Experimental: Monoacylglycerol Lipase Inhibitor Screening Assay provides a convenient method for screening human MAGL inhibitors.
Dilute 3 ml of MAGL Assay Buffer (10×) concentrate with 27 ml of ultrapure water. This final 1× Assay Buffer (10 mM Tris-HCl, pH 7.2, containing 1 mM EDTA) should be used in the assay and for the dilution of MAGL enzyme, substrate, and MAGL inhibitor. The 1× Assay Buffer is stable for at least six months if stored at −20° C.
The vial contains 0.5 ml of 17 mM ethanolic solution of 4-nitrophenylacetate. Mix 150 μL of this solution with 450 μl of 1× Assay Buffer prior to testing. This is enough substrate to assay 50 wells. Dilute additional substrate if using the entire plate.
This vial contains 100 μl of a solution of human recombinant MAGL (monoacylglycerol lipase). The thawed enzyme should be stored on ice. Dilute 30 μl of enzyme with 570 μl of 1×MAGL Assay Buffer. This is enough enzyme to assay 50 wells. Dilute additional enzyme if using the entire plate. The diluted enzyme is stable for four hours on ice.
This vial contains 20 nmol of inhibitor. Resuspend in 125 μl of DMSO, then add 125 μl of 1× Assay Buffer and vortex to make an 80 μM stock.
1). 100% Initial Activity Wells—add 150 μl of 1× Assay Buffer, 10 μl of MAGL enzyme, and 10 μl of solvent (same solvent used to dissolve the inhibitor) to three wells.
2). Background Wells—add 160 μl of 1× Assay Buffer and 10 μl of solvent (same solvent used to dissolve the inhibitor) to three wells.
3). Inhibitor/Positive Control Wells—add 150 μl of 1× Assay Buffer, 10 μl of MAGL enzyme, and 10 μl of inhibitor* or positive control inhibitor to the inhibitor wells.
4). Mix the contents of the wells by pipetting gently up and down and incubate for 15 minutes at room temperature. The incubation time for different inhibitors may vary and will need to be optimized by the user.
5). Initiate the reactions by adding 10 μl of MAGL Substrate to all the wells being used. Carefully shake the 96-well plate for 10 seconds to mix and cover with the plate cover. Incubate for ten minutes at room temperature.
6). […] (Tecan Spark 10M Multimode Plate Reader)
1). Determine the average absorbance of each sample.
2). Subtract the average absorbance of the background wells from the average absorbance of the 100% initial activity and the inhibitor wells.
3). Determine the percent inhibition or percent activity for each inhibitor using one of the following equations: […]

Compound	IC50 [2]	Experimental Results (analgesic activity in the formalin model) [1]	inhibition in vivo at 3 mg/kg [1]
O=C(OC(CO)C(F)(F)F)N1CCC(c2nn3c(c2F)CCc2cc(F)ccc2-3)CC1 (stereo not drawn) [Compound 3, 1,1,1-trifluoro-3-hydroxypropan-2-yl 4-(3,7-difluoro-4,5-dihydropyrazolo[1,5-a]quinolin-2-yl)piperidine-1-carboxylate]	–	effective	61%
O=C(OC(CO)C(F)(F)F)N1CCC(c2cc3n(n2)-c2ccc(F)cc2CC3)CC1 (stereo not drawn) [Compound 2, 1,1,1-trifluoro-3-hydroxypropan-2-yl 4-(7-fluoro-4,5-dihydropyrazolo[1,5-a]quinolin-2-yl)piperidine-1-carboxylate]	16 nM	effective	45%
O=C(OC(C(F)(F)F)C(F)(F)F)N1CCC(c2nc3n(n2)-c2ccc(F)cc2CC3)CC1 [Compound 24, 1,1,1,3,3,3-hexafluoropropan-2-yl 4-(7-fluoro-4,5-dihydro-[1,2,4]triazolo[1,5-a]quinolin-2-yl)piperidine-1-carboxylate]	–	effective	50%
O=C(OC(CO)C(F)(F)F)N1CCC(c2cn3c(n2)CCc2cc(F)ccc2-3)CC1 (stereo not drawn) [Compound 26, 1,1,1-trifluoro-3-hydroxypropan-2-yl 4-(7-fluoro-4,5-dihydroimidazo[1,2-a]quinolin-2-yl)piperidine-1-carboxylate]	83.4 nM	–	–
O=C(OC(C(F)(F)F)C(F)(F)F)N1CCN(c2cc3n(n2)-c2ccc(F)cc2CC3)CC1 [Compound 35, 1,1,1,3,3,3-hexafluoropropan-2-yl 4-(7-fluoro-4,5-dihydropyrazolo[1,5-a]quinolin-2-yl)piperazine-1-carboxylate]	13.1 nM	–	–
O=C(OC(CO)C(F)(F)F)N1CCC(c2nc3n(c2Br)-c2ncc(F)cc2CC3)CC1 (stereo not drawn) [Compound 31, 1,1,1-trifluoro-3-hydroxypropan-2-yl 4-(9-bromo-3-fluoro-5,6-dihydroimidazo[1,2-a][1,8]naphthyridin-8-yl)piperidine-1-carboxylate]	32.7 nM	–	–
N#Cc1c(C2CCN(C(=O)OC(C(F)(F)F)C(F)(F)F)CC2)nn2c1CCc1cc(F)cnc1-2 [Compound 18, 1,1,1,3,3,3-hexafluoropropan-2-yl 4-(3-cyano-7-fluoro-4,5-dihydropyrazolo[1,5-a][1,8]naphthyridin-2-yl)piperidine-1-carboxylate]	78.3 nM	–	–
Cc1c(C2CCN(C(=O)OC(CO)C(F)(F)F)CC2)nn2c1CCc1cc(F)ccc1-2 (stereo not drawn) [Compound 6, 1,1,1-trifluoro-3-hydroxypropan-2-yl 4-(7-fluoro-3-methyl-4,5-dihydropyrazolo[1,5-a]quinolin-2-yl)piperidine-1-carboxylate]	16.7 nM	effective	44%
O=C(OC(CO)C(F)(F)F)N1CCC(c2nn3c(c2Cl)CCc2cc(F)ccc2-3)CC1 (stereo not drawn) [Compound 4, 1,1,1-trifluoro-3-hydroxypropan-2-yl 4-(3-chloro-7-fluoro-4,5-dihydropyrazolo[1,5-a]quinolin-2-yl)piperidine-1-carboxylate]	–	effective	51%
O=C(OC(CO)C(F)(F)F)N1CC2C(C1)C2c1cc2n(n1)-c1ccc(F)cc1CC2 (stereo not drawn) [Compound 12, 1,1,1-trifluoro-3-hydroxypropan-2-yl 6-(7-fluoro-4,5-dihydropyrazolo[1,5-a]quinolin-2-yl)-3-azabicyclo[3.1.0]hexane-3-carboxylate]	–	effective	64%
O=C(OC(CO)C(F)(F)F)N1CCC(c2nn3c(c2C(F)(F)F)CCc2cc(F)ccc2-3)CC1 (stereo not drawn) [Compound 7, 1,1,1-trifluoro-3-hydroxypropan-2-yl 4-(7-fluoro-3-(trifluoromethyl)-4,5-dihydropyrazolo[1,5-a]quinolin-2-yl)piperidine-1-carboxylate]	89.8 nM	effective	56%
O=C(OC(C(F)(F)F)C(F)(F)F)N1CCN(Cc2ccc(C(F)(F)F)cc2N2CCCC2)CC1 [ABX-1431, reference compound]	–	effective	33%

The remaining molecules from weak to strong by IC50 [2], led by results:

IC50 [2]	Compound	Experimental Results (analgesic activity in the formalin model) [1]	inhibition in vivo at 3 mg/kg [1]
152 nM	CC(C)c1c(C2CCN(C(=O)OC(C(F)(F)F)C(F)(F)F)CC2)nn2c1CCc1cc(F)cnc1-2 [Compound 21, 1,1,1,3,3,3-hexafluoropropan-2-yl 4-(7-fluoro-3-isopropyl-4,5-dihydropyrazolo[1,5-a][1,8]naphthyridin-2-yl)piperidine-1-carboxylate]	–	–
126 nM	Cc1c(C2CCN(C(=O)OC(C(F)(F)F)C(F)(F)F)CC2)nn2c1CCc1cc(F)cnc1-2 [Compound 17, 1,1,1,3,3,3-hexafluoropropan-2-yl 4-(7-fluoro-3-methyl-4,5-dihydropyrazolo[1,5-a][1,8]naphthyridin-2-yl)piperidine-1-carboxylate]	–	–
37.1 nM	O=C(OC(CO)C(F)(F)F)N1CCC(c2nn3c(c2Br)CCc2cc(F)ccc2-3)CC1 (stereo not drawn) [Compound 5, 1,1,1-trifluoro-3-hydroxypropan-2-yl 4-(3-bromo-7-fluoro-4,5-dihydropyrazolo[1,5-a]quinolin-2-yl)piperidine-1-carboxylate]	effective	44%
25.1 nM	O=C(OC(CO)C(F)(F)F)N1CCC(c2nc3n(c2Br)-c2ccc(F)cc2CC3)CC1 (stereo not drawn) [Compound 28, 1,1,1-trifluoro-3-hydroxypropan-2-yl 4-(1-bromo-7-fluoro-4,5-dihydroimidazo[1,2-a]quinolin-2-yl)piperidine-1-carboxylate]	–	–
18.8 nM	O=C(OC(CO)C(F)(F)F)N1CCC(c2nn3c(c2C2CC2)CCc2cc(F)ccc2-3)CC1 (stereo not drawn) [Compound 40, 1,1,1-trifluoro-3-hydroxypropan-2-yl 4-(3-cyclopropyl-7-fluoro-4,5-dihydropyrazolo[1,5-a]quinolin-2-yl)piperidine-1-carboxylate]	effective	41%
12.5 nM	CC(C)c1c(C2CCN(C(=O)OC(C(F)(F)F)C(F)(F)F)CC2)nn2c1ccc1cc(F)cnc12 [Compound 34, 1,1,1,3,3,3-hexafluoropropan-2-yl 4-(7-fluoro-3-isopropylpyrazolo[1,5-a][1,8]naphthyridin-2-yl)piperidine-1-carboxylate]	–	–
9.1 nM	O=C(OC(C(F)(F)F)C(F)(F)F)N1CCC(c2cc3n(n2)-c2ncc(F)cc2CC3)CC1 [Compound 13, 1,1,1,3,3,3-hexafluoropropan-2-yl 4-(7-fluoro-4,5-dihydropyrazolo[1,5-a][1,8]naphthyridin-2-yl)piperidine-1-carboxylate]	effective	49%
